Here are results for 2 molecules from patent US20190030053A1, “COMPOSITION FOR INCREASING EXPRESSION OF PGC-1alpha” (BENEBIOSIS CO., LTD., priority 2016, published 2019).

For test [1], the system named is skin test model (HRM2) mice. As to the kind of experiment: Skin tests (UV irradiation, skin sensitivity, skin irritation, subcutaneous absorption) in skin test model mice. The test is classed as in vivo, mouse. The settings on record: oral 0.1 mg/kg/day, 10 weeks. An excerpt:
In order to investigate the gene expression chages by body parts by the treatment with the SL (3′-SL & 6′-SL) compositions in skin test models, 6-week-old male skin test model (HRM2) mice (hairless appearance containing melanin) were randomly grouped into three different dietary treatment groups (8 animals per group, a total of 24 animals) below, and the diets (AIN-76A, Dyets, USA) were maintained for 10 weeks. The UV irradiation (black spot, wrinkle test), skin sensitivity test, skin irritation test, subcutaneous absorption test, or the like were conducted using a portable color-difference meter (CR-10, Minolta, Japan): • Control group: Group fed with a normal diet (8 animals) • 3′-SL administration group: Models treated with 3′-sialyllactose (3′-SL, Sigma) (oral administration of 0.1 mg per kg of mouse weight per day) in addition to the normal diet group (8 animals) • 6′-SL administration group: Models treated with 6′-sialyllactose (6′-SL, Sigma) (oral administration of 0.1 mg per kg of mouse weight per day) in addition to the normal diet group (8 animals)

In test [2] the test system is PGC-1α and related genes. As to the kind of experiment: Gene expression by body parts in skin test models. Type of test: in vivo, mouse. The settings on record: HRM2 mice, oral 0.1 mg/kg/day, 10 weeks; organs and muscles. An excerpt: In order to investigate the gene expression chages by body parts by the treatment with the SL (3′-SL & 6′-SL) compositions in skin test models, 6-week-old male skin test model (HRM2) mice (hairless appearance containing melanin) were randomly grouped into three different dietary treatment groups (8 animals per group, a total of 24 animals) below, and the diets (AIN-76A, Dyets, USA) were maintained for 10 weeks. […]
The gene expression changes by administration of the SL (3′-SL & 6′-SL) compositions were quantitatively compared for eight main organs (heart, hippocampus, brain, spinal cord, lung, liver, spleen, and kidney), three skeletal muscles (soleus muscle, quadriceps femoris muscle, and gastrocnemius muscle), and the like. RNA was extracted by TRIzol agent (Invitrogen). cDNA was synthesized by using RNA, which has been extracted as above and quantified, and a reverse transcription system (Promega, USA). The expression patterns of PGC-1α and related genes were measured by using pre-designed primers and probes (Applied Biosystems; PGC-1α, Mm00447181_m1, GAPDH, and Mm99999915_q1) for the synthesized cDNA and analysis targets (Fndc5, PGC-1α, Erra, UCP1, SOD2, and GPX1). […]

In test [3] the test system is telomerase. As to the kind of experiment: Telomerase activity (TRAP) in vitro, MASMs of arteriosclerosis models. The test is classed as cell-based, mouse. The settings on record: MASMs of ApoE−/− control group, cultured 1 day with SL. Here is the method:
In FIG. 20, the telomerase activity was measured using TRAP protocol (Wright et al., 1995). In summary, cell pellets were lysed in CHAPS lysis solvent (containing ribonuclease inhibitor), followed by incubation at 4° C. for 30 minutes. Cell extracts ([…]) were TRAPeze reaction mix (telomerase substrate (TS) primer, fluorescent-labeled RP (reverse) primer, control standard template, and sulforhodamine-labeled standard K2 primer). The TS primer was elongated at 30° C. for 30 minutes, and then PCR was performed. The fluorescence of the thus obtained TRAP product was measured using a fluorescent plate reader to quantify telomerase activity. Relative telomerase activity was normalized by the ratio of native […] to sulforhodamine (internal control standard), expressed as a percentage. Fluorescein (M0250) was purchased from Marker Gene Technologies, Inc. H2-dichlorofluorescin diacetate (DCFDA) was purchased from Molecular Probes. MitoSOX™ Red, MitoTracker Green FM, and MitoTracker® Orange CMTMRos (MTO) were purchased from Invitrogen. 10,000× SYBR® Gold dye was purchased from Molecular Probes, Inc. Nuclear/Cytosol fractionation kit (K266-100) was purchased from BioVision. TRAPeze® XL telomerase detection kit (S7707) was purchased from MILLIPORE. Telomere PNA FISH Kit/Cy3 (K5326) was purchased from Dako. […]

In test [4] the test system is mouse models with temporary and permanent middle cerebral artery (MCA) occlusion. As to the kind of experiment: Ischemic volume (TTC) in stroke models with middle cerebral artery occlusion. Type of test: in vivo. Particulars: intraperitoneal. An excerpt: In order to investigate the changes in ischemic volume and modified limb placing test (MLPT) score by treatment with SL (3′-SL & 6′-SL) compositions in stroke models, 4-week-old mice were purchased from Central Lab Animal (Korea). Water was freely accessible, and a commercially available pellet feed (Dooyeul Biotech, Korea) was given for one week. Stroke models involving temporary and permanent middle cerebral artery (MCA) occlusion and intracerebral hemorrhage (ICH) were fabricated using 6-week-old male Sprague-Dawley rats (weight, average 185.3±15.8 g) and male BALB/c mice weight, average 24.6±3.8 g). For the comparison of SL administration effects, the mice, one hour after stroke induction, were randomly grouped into three different intraperitoneal administration groups (8 animals per group, 24 animals in total) below, and then intraperitoneally administered: • Control group: Lysis buffer control group medium intraperitoneal administration group (8 animals) • 3′-SL treatment: 3′-SL lysis buffer medium intraperitoneal administration group (8 animals) • 6′-SL treatment: 6′-SL lysis buffer medium intraperitoneal administration group (8 animals)
Local cerebral infarction mouse models were used as additional cerebral infarction models, and in these models, SL (3′-SL & 6′-SL) was intraperitoneally administered 3 hours after cerebral infarction introduction: • Control group: Lysis buffer control group medium intraperitoneal administration group (8 animals) • 3′-SL treatment: 3′-SL lysis buffer medium intraperitoneal administration group (8 animals) • 6′-SL treatment: 6′-SL lysis buffer medium intraperitoneal administration group (8 animals)
The ischemic volume measurement was conducted by measuring the volume of the ischemic area (infarct and boundary region thereof) using […] (TTC), 24 hours after ischemic induction, as follows. After brain extraction, the frontal tip was cut into 1 mm thickness, and immersed in 2% TCC solution. The stained slices were then fixed with PBS-4% paraformaldehyde, and the ischemic site and hemispherical region of each slice were measured using an image analysis system. The values due to brain edema were corrected as follows: corrected ischemic volume value: measured ischemic area×1−{[(ipsilateral hemisphere area-contralateral hemisphere area)/contralateral hemisphere]}. The ischemic volume was expressed as a percentage of the total hemispherical volume.

For the molecule `CC(=O)N[C@H]1[C@H]([C@H](O)[C@H](O)CO)O[C@@](OC[C@H]2O[C@@H](O[C@H]3[C@H](O)[C@@H](O)[C@H](O)O[C@@H]3CO)[C@H](O)[C@@H](O)[C@H]2O)(C(=O)O)C[C@@H]1O` [6′-SL, α-NeuNAc-(2→6)-β-D-Gal-(1→4)-D-Glc], the “skin state in UV irradiation (black spot, wrinkle test), skin sensitivity, skin irritation, subcutaneous absorption tests vs control” value in test [1] is recorded as “much improved skin”. In addition, the “expression levels of analysis targets (Fndc5, PGC-1α, Erra, UCP1, SOD2, GPX1) vs negative control” value in test [2] is “very excellent”. Besides, the “telomerase activity in MASMs (in vitro)” value in test [3] is on record as “increased telomerase activity”. Also, the “reduction of ischemic volume” value in test [4] (all models, 24 hours after ischemic induction) was “about 50%”; in test [4] (local cerebellar permanent ischemia models), 50%; in test [4] (local cerebellar temporal ischemia models) it was 60%; in test [4] (local cerebral permanent occlusion models), 40%.

For `CC(=O)N[C@H]1[C@H]([C@H](O)[C@H](O)CO)O[C@@](O[C@H]2[C@@H](O)[C@@H](CO)O[C@@H](O[C@H]3[C@H](O)[C@@H](O)C(O)O[C@@H]3CO)[C@@H]2O)(C(=O)O)C[C@@H]1O` (stereo partly drawn) [3′-SL, α-NeuNAc-(2→3)-β-D-Gal-(1→4)-D-Glc], the “skin state in UV irradiation (black spot, wrinkle test), skin sensitivity, skin irritation, subcutaneous absorption tests vs control” value in test [1] is “much improved skin”. In test [2], the “expression levels of analysis targets (Fndc5, PGC-1α, Erra, UCP1, SOD2, GPX1) vs negative control” value is “relatively low compared with 6′-SL”. Further, the “telomerase activity in MASMs (in vitro)” value in test [3] was “increased telomerase activity”. In addition, in test [4] (MCA occlusion models), the “ischemic neuronal damage protective effects” value is on record as “relatively low compared with 6′-SL”.
